Laboratory results reported in patent publication US20260166039A1 (SCHRÖDINGER, INC., priority 2022, published 2026).

Biological target: T1, Wee1 kinase domain (Homo sapiens, UniProt P30291)
T1 construct: Wee1 kinase domain was purchased from Carna (catalog #05-177); purchased Carna 05-177
Test: Wee1 Kinase Biochemical Assay (ADP-Glo)
Settings: 15 uM ATP
In short: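 Carna Wee1 kinase domain at 1 nM, with 15 uM ATP and 2 ng/mL poly(Lys,Tyr 4:1) substrate in 40 mM Tris-HCl, 20 mM MgCl2, 0.1 mg/mL BSA, 2 mM DTT, run 4 h at 25° C. ADP formation read by ADP-Glo luminescence. Percent inhibition normalised to DMSO and saturating-inhibitor controls.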

[1] = class symbols, 1 nM Wee1 enzyme, 4 hours at 25° C.

T1 sequence (P30291 299-569 limits assumed): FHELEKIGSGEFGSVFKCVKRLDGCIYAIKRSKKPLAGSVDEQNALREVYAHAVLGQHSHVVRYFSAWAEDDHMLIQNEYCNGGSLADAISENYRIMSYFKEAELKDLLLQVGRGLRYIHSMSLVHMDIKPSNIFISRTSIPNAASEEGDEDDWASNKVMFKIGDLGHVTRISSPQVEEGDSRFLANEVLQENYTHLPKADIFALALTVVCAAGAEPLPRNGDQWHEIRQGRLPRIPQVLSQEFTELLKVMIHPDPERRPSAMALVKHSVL

| IC50 [1] [nM] | IC50 (Wee1 kinase domain, ADP-Glo) [nM] | Compound | also measured |
| --- | --- | --- | --- |
| ≥ 1000 | – | CC1(C)C[C@@H]2N(c3ccc4c(n3)CCNC4)c3nc(Nc4ccc(N5CCOCC5)cc4)ncc3[C@]2(C)CO1 (single isomer, unassigned) [Example 561] | – |
| 10 to 100 | – | CN1C[C@@H]2C[C@H]1CN2c1ccc(Nc2ncc3c(n2)N(c2cccc(N4CCOC4=O)n2)[C@H]2CC(C)(C)OC[C@@]32C)cc1F [Example 677, 3-(6-((4bS,8aS)-2-((3-fluoro-4-((1S,4S)-5-methyl-2,5-diazabicyclo[2.2.1]heptan-2-yl)phenyl)amino)-4b,7,7-trimethyl-4b,7,8,8a-tetrahydropyrano[3′,4′:4,5]pyrrolo[2,3-d]pyrimidin-9(5H)-yl)pyridin-2-yl)oxazolidin-2-one] | – |
| 10 to 100 | – | CN1CCC(c2ccc(Nc3ncc4c(n3)N(c3cccc(N5CCOC5=O)n3)[C@H]3CC(C)(C)OC[C@@]43C)cc2)CC1 (single isomer, unassigned) [Example 590] | – |
| ≥ 1000 | – | CN1CCC(c2ccc(Nc3ncc4c(n3)N(c3cccc(N=S(C)(C)=O)c3)[C@H]3CC(C)(C)OC[C@@]43C)cn2)CC1 [Example 709, dimethyl((3-((4bS,8aS)-4b,7,7-trimethyl-2-((6-(1-methylpiperidin-4-yl)pyridin-3-yl)amino)-4b,7,8,8a-tetrahydropyrano[3′,4′:4,5]pyrrolo[2,3-d]pyrimidin-9(5H)-yl)phenyl)imino)-16-sulfanone] | – |
| ≥ 1000 | – | CN[C@@H](C)c1cc(C)nc(N2c3nc(Nc4ccc(N5CCOCC5)cc4)ncc3[C@]3(C)COC(C)(C)C[C@H]23)c1 (single isomer, unassigned) [Example 559] | – |
| 10 to 100 | – | CNCc1cccc(N2c3nc(Nc4ccn(C)c(=O)c4)ncc3[C@@]3(C)COC(C)(C)C[C@@H]23)n1 (single isomer, unassigned) [Example 456] | – |
| 100 to 1000 | – | CC1(C)C[C@@H]2N(c3cccc([C@@H]4CNCCO4)n3)c3nc(Nc4ccc(N5CCOCC5)cc4)ncc3[C@]2(C)CO1 [Example 736, (4bS,8aS)-4b,7,7-trimethyl-9-(6-((S)-morpholin-2-yl)pyridin-2-yl)-N-(4-morpholinophenyl)-4b,5,7,8,8a,9-hexahydropyrano[3′,4′:4,5]pyrrolo[2,3-d]pyrimidin-2-amine] | – |
| 100 to 1000 | – | CNCc1cccc(N2c3nc(Nc4cccc(N5CCOCC5)c4)ncc3[C@]3(C)COC(C)(C)C[C@H]23)n1 (single isomer, unassigned) [Example 469] | – |
| < 10 | – | CN1CC[C@@H](n2ccc(Nc3ncc4c(n3)N(c3cccc(N=S(C)(C)=O)n3)[C@@H]3CC(C)(C)OC[C@]43C)cc2=O)C1 [Example 804, 4-(((4bR,8aR)-9-(6-((dimethyl(oxo)-16-sulfaneylidene)amino)pyridin-2-yl)-4b,7,7-trimethyl-4b,5,7,8,8a,9-hexahydropyrano[3′,4′:4,5]pyrrolo[2,3-d]pyrimidin-2-yl)amino)-1-((R)-1-methylpyrrolidin-3-yl)pyridin-2(1H)-one] | – |
| < 10 | – | CN1CCN(c2ccc(Nc3ncc4c(n3)N(c3cccc(N=S(C)(C)=O)n3)[C@@H]3CC(C)(C)OC[C@]43C)nc2)CC1 (single isomer, unassigned) [Example 510] | – |
| 10 to 100 | – | Cc1cc(Nc2ncc3c(n2)N(c2cccc([C@@H]4CCCN4)n2)[C@H]2CC(C)(C)OC[C@@]32C)ccc1N1CCOCC1 (single isomer, unassigned) [Example 530] | – |
| < 10 | – | C[C@H]1COC(=O)N1c1cccc(N2c3nc(Nc4ccc([C@H]5CCN(C)C5)cc4)ncc3[C@@]3(C)COCC[C@@H]23)n1 [Example 793, (S)-4-methyl-3-(6-((4bR,8aR)-4b-methyl-2-((4-((R)-1-methylpyrrolidin-3-yl)phenyl)amino)-4b,7,8,8a-tetrahydropyrano[3′,4′:4,5]pyrrolo[2,3-d]pyrimidin-9(5H)-yl)pyridin-2-yl)oxazolidin-2-one] | – |
| < 10 | – | CC1(C)C[C@H]2N(c3ccccn3)c3nc(Nc4ccc(N5CCN6CC[C@@H]5C6)cc4)ncc3[C@@]2(C)CO1 [Example 808, (4bR,8aR)-N-(4-((5R)-1,4-diazabicyclo[3.2.1]octan-4-yl)phenyl)-4b,7,7-trimethyl-9-(pyridin-2-yl)-4b,5,7,8,8a,9-hexahydropyrano[3′,4′:4,5]pyrrolo[2,3-d]pyrimidin-2-amine] | – |
| – | < 10 | Cn1ccc2nc(Nc3ncc4c(n3)N(c3cccc(N=S(C)(C)=O)n3)[C@@H]3CC(C)(C)OC[C@]43C)cnc21 (single isomer, unassigned) [Example 383] | – |
| – | 10 to 100 | C[C@H]1COC(=O)N1c1cccc(N2c3nc(Nc4ccc([C@]5(C)CCN(C)C5)cc4)ncc3[C@]3(C)COC(C)(C)C[C@H]23)n1 (single isomer, unassigned) [Example 350] | – |
| – | 10 to 100 | Cc1cc(Nc2ncc3c(n2)N(c2cccc(N4C(=O)OC[C@@H]4C)n2)[C@H]2CC(C)(C)OC[C@@]32C)ccc1O[C@@H]1CCN(C)C1 (single isomer, unassigned) [Example 346] | – |
| 10 to 100 | – | CNCc1ccnc(N2c3nc(Nc4ccc(N5CCOCC5)cc4)ncc3[C@@]3(C)COC(C)(C)C[C@@H]23)c1 (single isomer, unassigned) [Example 547] | – |

More lines, now with the values behind:

| Compound | IC50 [1] [nM] | IC50 (Wee1 kinase domain, ADP-Glo) [nM] | also measured |
| --- | --- | --- | --- |
| C[C@H]1COC(=O)N1c1cccc(N2c3nc(Nc4ccc(C5CCN(C)CC5)cc4)ncc3[C@]3(C)COC(C)(C)C[C@H]23)n1 (single isomer, unassigned) [Example 250] | – | 10 to 100 | – |
| Cc1cc(Nc2ncc3c(n2)N(c2cccc(N4C(=O)OC[C@@H]4C)n2)[C@H]2CC(C)(C)OC[C@@]32C)ccc1N1CCN(C)CC1 (single isomer, unassigned) [Example 236] | – | 10 to 100 | – |
| CN(C)C(=O)c1ccc(Nc2ncc3c(n2)N(c2cccc(N=S(C)(C)=O)n2)[C@H]2CC(C)(C)OC[C@@]32C)cc1 (single isomer, unassigned) [Example 142] | – | 10 to 100 | – |
| CC(C)n1nc(N2c3nc(Nc4ccc(N5CCN(C)CC5)cc4)ncc3[C@@]3(C)COC(C)(C)C[C@@H]23)ccc1=O (single isomer, unassigned) [Example 829] | – | – | IC50 (1 nM Wee1 enzyme, 4 hours at 25° C): < 10 nM |
| CN1C[C@@H]2C[C@H]1CN2c1ccc(Nc2ncc3c(n2)N(c2cccc(N=S(C)(C)=O)n2)[C@H]2CC(C)(C)OC[C@@]32C)cc1 (single isomer, unassigned) [Example 123] | – | 100 to 1000 | – |
| CC1(C)C[C@@H]2N(c3cccc(N=S(C)(C)=O)n3)c3nc(Nc4ccc(C5CNC5)c(F)c4)ncc3[C@]2(C)CO1 (single isomer, unassigned) [Example 189] | – | 100 to 1000 | – |
| C[C@H]1COC(=O)N1c1cccc(N2c3nc(Nc4cn(C5CCN(C)CC5)nn4)ncc3[C@]3(C)COC(C)(C)C[C@H]23)n1 (single isomer, unassigned) [Example 252] | – | 100 to 1000 | – |
| CN1CCN(c2ccc(Nc3ncc4c(n3)N(c3cccc(C(C)(C)O)n3)[C@H]3CC(C)(C)OC[C@@]43C)cc2)CC1 (single isomer, unassigned) [Example 3] | – | 100 to 1000 | – |
| CNCc1cccc(N2c3nc(Nc4ccc(N5C6CCC5COC6)c(C)c4)ncc3[C@]3(C)COC(C)(C)C[C@H]23)n1 (single isomer, unassigned) [Example 86] | – | 100 to 1000 | – |
| C[C@H]1COC(=O)N1c1cccc(N2c3nc(Nc4ccc(C5CNC5)cc4)ncc3[C@]3(C)COC(C)(C)C[C@H]23)n1 (single isomer, unassigned) [Example 308] | – | 10 to 100 | – |
| CN1CC[C@@](C)(c2ccc(Nc3ncc4c(n3)N(c3cccc(N=S(C)(C)=O)n3)[C@H]3CC(C)(C)OC[C@@]43C)cc2)C1 (single isomer, unassigned) [Example 170] | – | 10 to 100 | – |
| CC1(C)C[C@@H]2N(c3cccc(N=S(C)(C)=O)n3)c3nc(Nc4ccc(C5CNC5)nc4)ncc3[C@]2(C)CO1 (single isomer, unassigned) [Example 191] | – | 100 to 1000 | – |
| Cc1cc(Nc2ncc3c(n2)N(c2cccc(C(C)(C)O)n2)[C@H]2CC(C)(C)OC[C@@]32C)ccc1C1CCN(C)CC1 (single isomer, unassigned) [Example 7] | – | 10 to 100 | – |
| C[C@H]1COC(=O)N1c1cccc(N2c3nc(Nc4cnn(C5CCN(C)CC5)c4)ncc3[C@]3(C)COC(C)(C)C[C@H]23)n1 (single isomer, unassigned) [Example 242] | – | 10 to 100 | – |
| Cc1cc(Nc2ncc3c(n2)N(c2cccc(N4C(=O)OC[C@@H]4C)n2)[C@H]2CC(C)(C)OC[C@@]32C)ccc1O[C@H]1CCN(C)C1 (single isomer, unassigned) [Example 344] | – | 10 to 100 | – |
| Cc1cc(Nc2ncc3c(n2)N(c2cccc(N4C(=O)OC[C@@H]4C)n2)[C@H]2CC(C)(C)OC[C@@]32C)ccc1[C@@H]1CCNC1 (single isomer, unassigned) [Example 268] | – | 10 to 100 | – |
| CNCc1cccc(N2c3nc(Nc4ccc(C(C)(C)C)cc4)ncc3[C@]3(C)COC(C)(C)C[C@H]23)n1 (single isomer, unassigned) [Example 74] | – | 10 to 100 | – |
| CN1CC[C@@H](Oc2ccc(Nc3ncc4c(n3)N(c3cccc(N=S(C)(C)=O)n3)[C@H]3CC(C)(C)OC[C@@]43C)cc2)C1 (single isomer, unassigned) [Example 160] | – | 100 to 1000 | – |
| CC1(C)C[C@@H]2N(c3cccc(N=S(C)(C)=O)n3)c3nc(Nc4cnn(C5CCOCC5)c4)ncc3[C@]2(C)CO1 (single isomer, unassigned) [Example 186] | – | 100 to 1000 | – |
| CN1Cc2cc(Nc3ncc4c(n3)N(c3cccc(N=S(C)(C)=O)n3)[C@H]3CC(C)(C)OC[C@@]43C)ccc2C(C)(C)C1 (single isomer, unassigned) [Example 136] | – | 10 to 100 | – |
| Cc1cc(Nc2ncc3c(n2)N(c2cccc(N4C(=O)OC[C@@H]4C)n2)[C@H]2CC(C)(C)OC[C@@]32C)ccc1N1C[C@H]2C[C@@H]1CN2C (single isomer, unassigned) [Example 288] | – | 10 to 100 | – |
| CC1(C)C[C@@H]2N(c3cccc(N=S(C)(C)=O)n3)c3nc(Nc4ccc([C@]5(C)CCNC5)cc4)ncc3[C@]2(C)CO1 (single isomer, unassigned) [Example 172] | – | 10 to 100 | – |
